Columns and labels:
[1] = Systemic exposure of LUM001 in patients under 18 years (study NB-00-02-014); format: in vivo, human; conditions: for Average serum drug exposure: day eight
Method: LUM001 has been administered to forty patients under the age of 18 years old. […] The drug was administered once-a-day (QD) in the morning for fourteen days. […] These doses are similar to those using to treat patients with Barrett's esophagus or GERD.

[2] = system: fecal excretion of [14C]taurocholic acid (TCA); assay: Fecal excretion of [14C]taurocholic acid in hamsters, LUM002; format: in vivo, Syrian hamster; conditions: oral gavage in two half doses, feces collected 24 hours, n=4 nonfasted hamsters per group
Method: To study the effect of LUM002 on fecal excretion of [^14C]taurocholic acid (TCA) in the Syrian hamster in vivo, [^14C]TCA was administered intraperitoneally 1 hour before dosing the test compound. Each animal was dosed with 1 μCi [^14C]TCA. LUM002 was dosed by oral gavage (5 mL/kg per administration) in either 5% (v/v) Solutol with 0.5% hydroxyethylcellulose (HEC) or 0.5% HEC alone. The first half of dose of test compound/vehicle was given 1 hour after [^14Cl]TCA injection, followed by the second half of dose 7 hours after the first dose of test compound/vehicle. Feces were collected for 24 hours after [^14Cl]TCA administration and aliquots from feces were combusted for determination of [^14Cl] excretion.
The ED200 (dose which doubles the fecal excretion of [^14Cl] label vs. control from dose response curve, including 95% Confidence interval) was calculated from a dose response curve.

[3] = Pharmacokinetics of LUM002 100 mg single oral dose in humans; format: in vivo, human
Method: Healthy male subjects, from 18 to 45 years of age, were given a single oral solution dose (100 mg in 100 mL) of LUM002 under fasting conditions. Blood samples for the determination of LUM002 plasma concentration were collected predose and 0.5, 1, 2, 3, 4, 5, 6, 8, 10, 12, 16, 24, and 48 hours after treatment administration. Plasma was obtained by centrifugation and […] processed for protein precipitation, centrifuged again to remove the precipitate and the supernatant prepared for LC-MSMS analysis. LUM002 plasma concentrations were determined using a validated liquid chromatography tandem mass spectrometry (LC-MSMS) assay with a lower limit of quantification (LLOQ) of 0.1 ng/mL. LUM002 plasma concentrations were used to determine the following pharmacokinetic parameters using standard noncompartmental techniques: Cmax, Tmax, AUClast, and, if applicable due to the low-absorbable characteristics of LUM002, also AUC, AUC0-24 and t1/2.

[4] = 100 mg single oral dose, Geometric Mean, N=6
[5] = 100 mg single oral dose, Median, N=6
[6] = 100 mg single oral dose, Subject 250001149
[7] = 100 mg single oral dose, Subject 250001150
[8] = 100 mg single oral dose, Subject 250001151
[9] = 100 mg single oral dose, Subject 250001154
[10] = 100 mg single oral dose, Subject 250001155
[11] = 100 mg single oral dose, Subject 750001156
[12] = 100 mg single oral dose, mean, N=6

CCCCC1(CCCC)CS(=O)(=O)c2ccc(N(C)C)cc2[C@@H](c2ccc(OCc3ccc(C[N+]45CCN(CC4)CC5)cc3)cc2)[C@H]1O [LUM001]
Average serum drug exposure ([1]; Subject 0304, 1.0 mg QD (24.3 μg/kg)): 0.0 ng/mL
Average serum drug exposure ([1]; Subject 0308, 1.0 mg QD (28.9 μg/kg)): 0.0 ng/mL
Average serum drug exposure ([1]; Subject 0309, 1.0 mg QD (35.0 μg/kg)): 0.0 ng/mL
Average serum drug exposure ([1]; Subject 0410, 2.5 mg QD (42.0 μg/kg)): 0.0 ng/mL
Average serum drug exposure ([1]; Subject 0510, 5.0 mg QD (168.4 μg/kg)): 0.0 ng/mL
Systemic exposure of LUM001 ([1]; patients under 18 years, QD, measured on day eight): confirmed to be minimally absorbed

CCCC[C@]1(CC)CS(=O)(=O)c2ccc(N(C)C)cc2[C@@H](c2cccc(NC(=O)N[C@@H]3O[C@H](COS(=O)(=O)[O-])[C@@H](O)[C@H](OCc4ccccc4)[C@H]3O)c2)[C@H]1O.CCO.O.[K+] [LUM002, potassium((2R,3R,4S,5R,6R)-4-benzyloxy-6-{3-[3-((3S,4R,5R)-3-butyl-7-dimethylamino-3-ethyl-4-hydroxy-1,1-dioxo-2,3,4,5-tetrahydro-1H-benzo[b]thiepin-5-yl)-phenyl]-ureido}-3,5-dihydroxy-tetrahydro-pyran-2-ylmethyl)sulphate ethanolate, hydrate]
Fecal excretion of bile acids ([14C]TCA label) [2]: significantly increased fecal excretion of bile acids
AUClast [3, 4]: 0.187 ng·h/mL
Cmax [3, 4]: 0.197 ng/mL
Tmax [3, 4]: 3.22 h
tlast [3, 4]: 4.93 h
AUClast [3, 5]: 0.148 ng·h/mL
Cmax [3, 5]: 0.216 ng/mL
Tmax [3, 5]: 5.00 h
tlag [3, 5]: 1.00 h
tlast [3, 5]: 5.00 h
AUC0-24 [3, 6]: 1.92 ng·h/mL
AUCExt [3, 6]: 39%
AUClast [3, 6]: 1.19 ng·h/mL
Cmax [3, 6]: 0.300 ng/mL
Tmax [3, 6]: 5.00 h
t1/2z [3, 6]: 3.39 h
tlag [3, 6]: 0.00 h
tlast [3, 6]: 8.00 h
AUClast [3, 7]: 0.0815 ng·h/mL
Cmax [3, 7]: 0.163 ng/mL
Tmax [3, 7]: 5.00 h
tlag [3, 7]: 4.00 h
tlast [3, 7]: 5.00 h
AUClast [3, 8]: 0.0645 ng·h/mL
Cmax [3, 8]: 0.129 ng/mL
Tmax [3, 8]: 3.00 h
tlag [3, 8]: 2.00 h
tlast [3, 8]: 3.00 h
AUClast [3, 9]: 0.215 ng·h/mL
Cmax [3, 9]: 0.269 ng/mL
Tmax [3, 9]: 6.00 h
tlag [3, 9]: 0.00 h
tlast [3, 9]: 6.00 h
AUClast [3, 10]: 0.522 ng·h/mL
Cmax [3, 10]: 0.286 ng/mL
Tmax [3, 10]: 0.50 h
tlag [3, 10]: 0.00 h
tlast [3, 10]: 4.00 h
AUClast [3, 11]: 0.0600 ng·h/mL
Cmax [3, 11]: 0.120 ng/mL
Tmax [3, 11]: 5.00 h
tlag [3, 11]: 4.00 h
tlast [3, 11]: 5.00 h
AUClast [3, 12]: 0.355 ng·h/mL
Cmax [3, 12]: 0.211 ng/mL
Tmax [3, 12]: 4.08 h
tlag [3, 12]: 1.67 h
tlast [3, 12]: 5.17 h
LUM002 dose systemically absorbed ([3]; healthy male subjects, single oral solution 100 mg, fasting): Less than 1%

Reference: patent publication US20140271734A1, “BILE ACID RECYCLING INHIBITORS FOR TREATMENT OF BARRETT'S ESOPHAGUS AND GASTROESOPHAGEAL REFLUX DISEASE” (LUMENA PHARMACEUTICALS, INC., priority 2013, published 2014)
